In PubChem BioAssay (NCI) one finds TGI and GI50 data, which are given here for 12 compounds.

Test systems include KM20L2 colon; DLD-1 colon; DMS 114 small cell lung; DMS 273 small cell lung; HOP-18 NSCLC; LXFL 529 NSCLC; M19-MEL melanoma; RXF-631 renal; SNB-78 CNS; P388/ADR leukemia; SN12K1 renal.
Holding throughout (assay): NCI tumour cell line growth inhibition, 48 h

Several values for one entry are separate records, joined by “and”; a condition that tells them apart may be missing. Identical values can stand only once.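 Following 48 hours of exposure in 96-well plates, responses at five concentrations were used to interpolate endpoints linearly. Abbreviation: GI50, concentration required for 50% inhibition of growth. TGI denotes the concentration required for complete inhibition of growth.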

In the experiment with KM20L2 colon, `COc1cccc(/C=N/[N-]C(N)=O)c1[O-].[Ni+2].[OH3+].c1cnc2c(c1)ccc1cccnc12` came in with a TGI of over 100 µM.

As for `CN(C)CCSC(=Nc1ccccc1)N1CCCCC1`, the TGI was 31.5 µM in the experiment with DLD-1 colon; 26.5 µM in the experiment with DMS 114 small cell lung; 31.1 µM in the experiment on DMS 273 small cell lung; 33.5 µM in the experiment on HOP-18 NSCLC; 31.7 µM in the experiment on KM20L2 colon; 29.4 µM in the experiment on LXFL 529 NSCLC. Besides, in the experiment on M19-MEL melanoma, the TGI turned out to be 31.2 µM.

For `NCCNc1cccc2ccccc12`, the TGI in the experiment with DLD-1 colon, in the experiment on DMS 114 small cell lung, in the experiment with DMS 273 small cell lung, in the experiment on HOP-18 NSCLC, in the experiment on KM20L2 colon and with LXFL 529 NSCLC was over 100 µM each time. Further, the TGI in the experiment with M19-MEL melanoma, in the experiment with RXF-631 renal and in the experiment on SNB-78 CNS was over 100 µM in each case.

For `c1ccc2c(c1)CCc1cc3cc4c(nc3nc1-2)-c1ccccc1CC4`, the TGI with DLD-1 colon, with DMS 273 small cell lung, in the experiment on LXFL 529 NSCLC, in the experiment on M19-MEL melanoma and in the experiment with SNB-78 CNS was over 100 µM in each case.

Turning to `N#C[S-].[Nd+3].c1ccc(-c2ccccn2)nc1.c1ccc(-c2ccccn2)nc1.c1ccc(-c2ccccn2)nc1`, the GI50 in the experiment with DLD-1 colon is 3.45 µM; with DMS 114 small cell lung, 15.7 µM; in the experiment with DMS 273 small cell lung, 3.23 µM; in the experiment on KM20L2 colon, 2.38 µM; in the experiment with M19-MEL melanoma, 9.78 µM; in the experiment with SNB-78 CNS it was 94.2 µM. Moreover, the TGI in the experiment on DLD-1 colon is over 100 µM; with DMS 114 small cell lung, 67.1 µM; in the experiment with DMS 273 small cell lung, 19.5 µM; in the experiment with KM20L2 colon it was 6.08 µM; with M19-MEL melanoma it was 54 µM; in the experiment on SNB-78 CNS, over 100 µM.

Consider `NC(=O)C#CC(N)=O`, for which the GI50 was 26.5 µM and 22.2 µM and 62.5 µM in the experiment with DLD-1 colon; 24.4 µM and 38.3 µM and > 100 µM in the experiment with DMS 114 small cell lung; 23.5 µM and 30.5 µM and > 100 µM in the experiment with DMS 273 small cell lung; 11.8 µM and 10.1 µM and 28.6 µM with M19-MEL melanoma; 14.8 µM in the experiment on SN12K1 renal; 22.5 µM and 121 µM in the experiment on SNB-78 CNS. Moreover, the TGI was 87.5 µM and 68.3 µM and > 100 µM in the experiment with DLD-1 colon; 71.5 µM and 125 µM and > 100 µM with DMS 114 small cell lung; 73.1 µM and 106 µM and > 100 µM with DMS 273 small cell lung; 43.5 µM and 33.2 µM in the experiment on HOP-18 NSCLC; over 100 µM in the experiment on LXFL 529 NSCLC; 24.8 µM and 22.4 µM and > 65.8 µM in the experiment on M19-MEL melanoma. Further, the TGI in the experiment with P388/ADR leukemia is 875 µM; with RXF-631 renal, over 100 µM; in the experiment on SN12K1 renal it was 27.4 µM and 26.7 µM; with SNB-78 CNS, 72.3 µM and 202 µM and > 100 µM.

For the compound `Cc1cccc(C2=NC(C)(C)C(C)(C)N=C2c2cccc(C)n2)n1`, the TGI in the experiment with DLD-1 colon, in the experiment with DMS 114 small cell lung, in the experiment with DMS 273 small cell lung, in the experiment on HOP-18 NSCLC, with KM20L2 colon and in the experiment with LXFL 529 NSCLC was over 100 µM throughout. Further, the TGI in the experiment with M19-MEL melanoma, with RXF-631 renal and with SNB-78 CNS was over 100 µM each time.

Turning to `C=C1C(=O)OCC2C(C(=O)O)=CC3C(C)C(C)=CC123` (centres undefined), the TGI is 45.7 µM with DLD-1 colon; 33.8 µM with DMS 114 small cell lung; 59.6 µM in the experiment on DMS 273 small cell lung; 34.2 µM with HOP-18 NSCLC; 51.1 µM in the experiment on KM20L2 colon; 54.6 µM with M19-MEL melanoma. Further, the TGI with P388/ADR leukemia was found to be 21.9 µM; in the experiment with SN12K1 renal, 29.6 µM; in the experiment with SNB-78 CNS it was 117 µM.

As for `Cc1cccc(NC(=O)C(=O)C(C(=O)c2ccccc2F)C2OC(=O)c3ccccc32)c1Cl` (centres undefined), the TGI in the experiment with DLD-1 colon was over 100 µM; in the experiment on DMS 114 small cell lung it was 53 µM; with DMS 273 small cell lung, over 100 µM; in the experiment with KM20L2 colon, 88.5 µM; in the experiment on LXFL 529 NSCLC it was over 100 µM; in the experiment with M19-MEL melanoma, over 100 µM. In the experiment on SNB-78 CNS, the TGI is over 100 µM.

`CCCCOP1(=O)C=C(C)C(=C(Cl)Cl)C(C)=C1` (centres undefined): the TGI is 38.9 µM in the experiment with DLD-1 colon; 10.8 µM in the experiment with DMS 114 small cell lung; 16.6 µM with DMS 273 small cell lung; 82.2 µM in the experiment with HOP-18 NSCLC; 5.13 µM in the experiment with KM20L2 colon; 32.9 µM with M19-MEL melanoma. The figures for the TGI in the experiment with RXF-631 renal and in the experiment on SNB-78 CNS were 33.9 µM and 6.04 µM, respectively.

As for `c1ccc2c(c1)nc(NC1CCCC1)c1[nH]c(C3CCCC3)nc12`, the TGI with DLD-1 colon was over 100 µM; in the experiment on DMS 114 small cell lung, 35.4 µM; in the experiment with DMS 273 small cell lung, 22.3 µM; in the experiment with HOP-18 NSCLC, 45.5 µM; with KM20L2 colon, 20.8 µM; in the experiment with LXFL 529 NSCLC, 22.8 µM. The TGI in the experiment on M19-MEL melanoma was 27.7 µM; in the experiment with SNB-78 CNS it was over 92.7 µM.

Regarding `O=[Se](=O)c1ccccc1.O=[Se](=O)c1ccccc1.[Cu]`, the GI50 in the experiment on DLD-1 colon was 18.9 µM; in the experiment with DMS 114 small cell lung, 6.77 µM; with DMS 273 small cell lung it was 20.4 µM; in the experiment on HOP-18 NSCLC it was 23.4 µM; in the experiment with KM20L2 colon, 18.3 µM; with M19-MEL melanoma, 5.95 µM. For the same compound, the GI50 in the experiment with P388/ADR leukemia is 3.99 µM; with SN12K1 renal it was 7.41 µM; with SNB-78 CNS, 12.4 µM. Further, the TGI in the experiment with DLD-1 colon stood at 40.5 µM; in the experiment with DMS 114 small cell lung, 14.9 µM; with DMS 273 small cell lung, 38.3 µM; in the experiment with HOP-18 NSCLC, 41.1 µM; with KM20L2 colon it was 35.1 µM; in the experiment on M19-MEL melanoma it was 15.2 µM. Further, the TGI in the experiment with P388/ADR leukemia is 24.4 µM; in the experiment on SN12K1 renal, 17.6 µM; with SNB-78 CNS it was 17.1 µM.
